The nature of data set [1]: Log D7.4 measurement by chromatographic method. Particulars: experimental distribution coefficient at pH 7.4; read-out: e log D7.4. Type of data set: physicochemical. How it is done: (§1) Both were experimentally obtained employing HPLC-based protocols.[39],[40] […] PPB values were determined in view of how they could impact future pharmacokinetic studies of compounds as VHL inhibitors, or once conjugated into bifunctional PROTACs, for which PPB can be a limiting factor.
The determination of the log D7.4 values was performed by a chromatographic method as described previously.[41],[62] […] Subsequently, the mean retention times (n = 2) of the analytes were taken to calculate their log D7.4 values.

Another data set concerns the target human serum albumin (Homo sapiens, UniProt P02768). As to the kind of experiment: PPB studies on HSA HPLC column. The format is in vitro ADME. As to conditions: CHIRALPAK HSA HPLC column (human serum albumin); experimentally determined percentage of the compound bound to human serum albumin. How it is done:
as §1
PPB was estimated by correlating the logarithmic retention times of the analytes on a […] HSA 50 × 3 mm, 5 μm column with the literature-known % PPB values (converted into log K values) of the following drugs: warfarin, ketoprofen, budesonide, nizatidine, indomethacin, acetylsalicylic acid, carbamazepine, piroxicam, nicardipine, and cimetidine.[63] Samples were dissolved in MeCN/DMSO 9:1 to achieve a final concentration of 0.5 mg/mL. The mobile phase A was 50 mM ammonium acetate adjusted to pH 7.4 with 10% NaOH, while mobile phase B was iPrOH. […] After injecting 3 μL of the sample, a linear gradient from 100% A to 30% iPrOH in 5.4 min was applied. From 5.4 to 18 min, 30% iPrOH was kept, followed by switching back to 100% A in 1.0 min and a re-equilibration time of 6 min.

Another data set concerns the target T1, VCB protein (Homo sapiens, UniProt P40337).
T1 construct: A plasmid containing pVHL54–213 with an N-terminal His6 tag; His6 (N, cleaved yes); made in house; host or cells: Escherichia coli BL21 (DE3)
As to the kind of experiment: Competitive fluorescence polarization (FP) binding assay, displacement of FAM-labeled HIF-1α peptide. As to conditions: for Kd: dissociation constant, determined by FP, mean ± S.E.M., back-calculated from IC50; for IC50: mean IC50 values obtained from the FP assay, read-out: IC50 ± S.E.M, FP assay. How it is done:
Binding of a ligand to the HIF binding site of VHL displaces a fluorescein-labeled, 19-mer HIF-1α oligopeptide, leading to a change in polarization of emitted light upon excitation of the competing fluorescent probe.
All components were dissolved from stock solutions using 100 mM Bis–Tris, 100 mM NaCl, 1 mM DTT, pH 7.0, to yield a final assay volume of 15 μL. DMSO was added as appropriate to ensure a final concentration of 2% (v/v). Control wells containing VCB and JC9 with no compound (zero displacement), or JC9, in the absence of protein (maximum displacement) were also included to allow for normalization. Percentage displacement values were obtained by normalization of controls and were plotted against log[compound]. The IC50 values were determined for each titration using non-linear regression analysis with Prism GraphPad (Table S1). Dissociation constants Kd for the compound–VCB interaction were back-calculated from the measured IC50 values by using a displacement binding model as described.[16],[64]

The values below come from paper PMC10544018 (Journal of Medicinal Chemistry, 2023).

The structures appear in SMILES notation.

The fraction unbound is the share of the substance not bound to proteins or other matrix. Low readings indicate extensive binding, high ones weak binding. One may read the Kd as the free concentration of one partner at which half of the binding sites on the other are occupied at equilibrium, for simple one-to-one binding. A word on the IC50: it is the point on the concentration scale where inhibition reaches its midpoint. For the molecule `Cc1ncsc1-c1ccc(CNC(=O)[C@@H]2C[C@@H](O)CN2C(=O)[C@@H](NC(=O)C2(C#N)CC2)C(C)(C)C)c(F)c1` [Compound 4, (2S,4R)-1-((S)-2-(1-Cyanocyclopropane-1-carboxamido)-3,3-dimethylbutanoyl)-N-(2-fluoro-4-(4-methylthiazol-5-yl)benzyl)-4-hydroxypyrrolidine-2-carboxamide], the chromatographic logD in data set [1] came out at 1.9. At human serum albumin, this molecule showed a fraction unbound at 0.5 mg/mL of 0.12. For the same molecule, at VCB protein, the Kd is 297 ± 34 nM and the IC50 is 1360 ± 56 nM.

For the molecule `Cc1ncsc1-c1ccc(CNC(=O)[C@@H]2C[C@@H](O)CN2C(=O)[C@@H](NC(=O)C2(C#N)CC2)C(C)(C)C)c(O)c1F` [Compound 20, (2S,4R)-1-((S)-2-(1-Cyanocyclopropane-1-carboxamido)-3,3-dimethylbutanoyl)-N-(3-fluoro-2-hydroxy-4-(4-methylthiazol-5-yl)benzyl)-4-hydroxypyrrolidine-2-carboxamide], the chromatographic logD in data set [1] was found to be 1.9. The same molecule showed a fraction unbound at 0.5 mg/mL on human serum albumin of 0.11. For the same molecule, on VCB protein, the Kd was 141 ± 8 nM and the IC50 worked out at 727 ± 7 nM.

As to `Cc1cc(-c2scnc2C)ccc1CNC(=O)[C@@H]1C[C@@H](O)CN1C(=O)[C@@H](NC(=O)C1(C#N)CC1)C(C)(C)C` [Compound 2, (2S,4R)-1-((S)-2-(1-Cyanocyclopropane-1-carboxamido)-3,3-dimethylbutanoyl)-4-hydroxy-N-(2-methyl-4-(4-methylthiazol-5-yl)benzyl)pyrrolidine-2-carboxamide], the chromatographic logD in data set [1] was 2. This molecule also had a fraction unbound at 0.5 mg/mL at human serum albumin of 0.1. Further, at VCB protein, the equilibrium dissociation constant (Kd) was 149 ± 28 nM and the IC50 was 668 ± 33 nM.

Turning to `Cc1ncsc1-c1cc2c(cc1F)[C@@H](NC(=O)[C@@H]1C[C@@H](O)CN1C(=O)[C@@H](NC(=O)C1(C#N)CC1)C(C)(C)C)CC2` [Compound 35, (2S,4R)-1-((S)-2-(1-Cyanocyclopropane-1-carboxamido)-3,3-dimethylbutanoyl)-N-((S)-6-fluoro-5-(4-methylthiazol-5-yl)-2,3-dihydro-1H-inden-1-yl)-4-hydroxypyrrolidine-2-carboxamide], the chromatographic logD in data set [1] is 2.3. The fraction unbound at 0.5 mg/mL on human serum albumin was 0.1. In addition, at VCB protein, the dissociation constant (Kd) is 4040 ± 530 nM and the IC50 was 16600 ± 2130 nM.

Turning to `Cc1ncsc1-c1ccc(CNC(=O)[C@@H]2C[C@@H](O)CN2C(=O)[C@@H](NC(=O)C2(C#N)CC2)C(C)(C)C)c(F)c1F` [Compound 19, (2S,4R)-1-((S)-2-(1-Cyanocyclopropane-1-carboxamido)-3,3-dimethylbutanoyl)-N-(2,3-difluoro-4-(4-methylthiazol-5-yl)benzyl)-4-hydroxypyrrolidine-2-carboxamide], the chromatographic logD in data set [1] was determined as 2.2. The unbound share (fraction unbound) at 0.5 mg/mL at human serum albumin was 0.11. Moreover, on VCB protein, the Kd was 1450 ± 180 nM and the IC50 amounted to 7450 ± 624 nM.

As for `Cc1ncsc1-c1ccc(CNC(=O)[C@@H]2C[C@@H](O)CN2C(=O)[C@@H](NC(=O)C2(F)CC2)C(C)(C)C)cc1` [Compound 38, (2S,4R)-1-((S)-2-(1-Fluorocyclopropane-1-carboxamido)-3,3-dimethylbutanoyl)-4-hydroxy-N-(4-(4-methylthiazol-5-yl)benzyl)pyrrolidine-2-carboxamide, reference compound], in data set [1], the chromatographic logD amounted to 1.8. Further, on human serum albumin, the fraction unbound at 0.5 mg/mL was 0.14.

Regarding `Cc1ncsc1-c1ccc([C@H](C)NC(=O)[C@@H]2C[C@@H](O)CN2C(=O)[C@@H](NC(=O)C2(C#N)CC2)C(C)(C)C)cc1F` [Compound 25, (2S,4R)-1-((S)-2-(1-Cyanocyclopropane-1-carboxamido)-3,3-dimethylbutanoyl)-N-((S)-1-(3-fluoro-4-(4-methylthiazol-5-yl)phenyl)ethyl)-4-hydroxypyrrolidine-2-carboxamide], the chromatographic logD in data set [1] was found to be 2.2. Also, on human serum albumin, the free fraction (fraction unbound) at 0.5 mg/mL was 0.12. Moreover, on VCB protein, the Kd is 186 ± 40 nM and the IC50 came out at 718 ± 95 nM.

Take `Cc1cc(-c2scnc2C)c(F)cc1CNC(=O)[C@@H]1C[C@@H](O)CN1C(=O)[C@@H](NC(=O)C1(F)CC1)C(C)(C)C` [Compound 28, (2S,4R)-N-(5-Fluoro-2-methyl-4-(4-methylthiazol-5-yl)benzyl)-1-((S)-2-(1-fluorocyclopropane-1-carboxamido)-3,3-dimethylbutanoyl)-4-hydroxypyrrolidine-2-carboxamide]: in data set [1], the chromatographic logD worked out at 2.3. In addition, the fraction unbound at 0.5 mg/mL on human serum albumin is 0.1. Further, on VCB protein, the Kd is 80 ± 23 nM and the half-maximal inhibitory concentration (IC50) came to 310 ± 65 nM.

As for `COc1cc(-c2scnc2C)c(OC)cc1CNC(=O)[C@@H]1C[C@@H](O)CN1C(=O)[C@@H](NC(=O)C1(C#N)CC1)C(C)(C)C` [Compound 15, (2S,4R)-1-((S)-2-(1-Cyanocyclopropane-1-carboxamido)-3,3-dimethylbutanoyl)-N-(2,5-dimethoxy-4-(4-methylthiazol-5-yl)benzyl)-4-hydroxypyrrolidine-2-carboxamide], the chromatographic logD in data set [1] is 1.9. This molecule had a fraction unbound at 0.5 mg/mL on human serum albumin of 0.14. Further, on VCB protein, the Kd is 1270 ± 150 nM and the IC50 worked out at 6530 ± 428 nM.

For `Cc1ncsc1-c1cc(F)c(CNC(=O)[C@@H]2C[C@@H](O)CN2C(=O)[C@@H](NC(=O)C2(C#N)CC2)C(C)(C)C)c(F)c1` [Compound 12, (2S,4R)-1-((S)-2-(1-Cyanocyclopropane-1-carboxamido)-3,3-dimethylbutanoyl)-N-(2,6-difluoro-4-(4-methylthiazol-5-yl)benzyl)-4-hydroxypyrrolidine-2-carboxamide], in data set [1], the chromatographic logD was determined as 1.9. The same molecule gave a fraction unbound at 0.5 mg/mL on human serum albumin of 0.14. Further, on VCB protein, the Kd was 2130 ± 150 nM and the IC50 is 11000 ± 747 nM.

On to `Cc1ncsc1-c1ccc(CNC(=O)[C@@H]2C[C@@H](O)CN2C(=O)[C@@H](NC(=O)C2(C#N)CC2)C(C)(C)C)c2ccccc12` [Compound 22, (2S,4R)-1-((S)-2-(1-Cyanocyclopropane-1-carboxamido)-3,3-dimethylbutanoyl)-4-hydroxy-N-((4-(4-methylthiazol-5-yl)naphthalen-1-yl)methyl)pyrrolidine-2-carboxamide], for which the chromatographic logD in data set [1] turned out to be 2.3. Besides, the unbound share (fraction unbound) at 0.5 mg/mL at human serum albumin is 0.07. Also, on VCB protein, the Kd is 397 ± 70 nM and the IC50 turned out to be 2020 ± 271 nM.

For the molecule `Cc1ncsc1-c1ccc2c(c1)CC[C@@H]2NC(=O)[C@@H]1C[C@@H](O)CN1C(=O)[C@@H](NC(=O)C1(C#N)CC1)C(C)(C)C` [Compound 34, (2S,4R)-1-((S)-2-(1-Cyanocyclopropane-1-carboxamido)-3,3-dimethylbutanoyl)-4-hydroxy-N-((S)-5-(4-methylthiazol-5-yl)-2,3-dihydro-1H-inden-1-yl)pyrrolidine-2-carboxamide], in data set [1], the chromatographic logD stood at 2.2. Moreover, on human serum albumin, the fraction unbound at 0.5 mg/mL was 0.1. In addition, at VCB protein, the Kd was 3920 ± 420 nM and the IC50 came out at 15900 ± 934 nM.

Consider `Cc1ncsc1-c1cc2c(cc1F)[C@@H](NC(=O)[C@@H]1C[C@@H](O)CN1C(=O)[C@@H](NC(=O)C1(F)CC1)C(C)(C)C)CC2` [Compound 36, (2S,4R)-N-((S)-6-Fluoro-5-(4-methylthiazol-5-yl)-2,3-dihydro-1H-inden-1-yl)-1-((S)-2-(1-fluorocyclopropane-1-carboxamido)-3,3-dimethylbutanoyl)-4-hydroxypyrrolidine-2-carboxamide], for which the chromatographic logD in data set [1] was found to be 2.3. Further, at VCB protein, the Kd is 2550 ± 510 nM and the IC50 is 10600 ± 2030 nM.

For the molecule `COc1c(CNC(=O)[C@@H]2C[C@@H](O)CN2C(=O)[C@@H](NC(=O)C2(C#N)CC2)C(C)(C)C)ccc(-c2scnc2C)c1F` [Compound 21, (2S,4R)-1-((S)-2-(1-Cyanocyclopropane-1-carboxamido)-3,3-dimethylbutanoyl)-N-(3-fluoro-2-methoxy-4-(4-methylthiazol-5-yl)benzyl)-4-hydroxypyrrolidine-2-carboxamide], the chromatographic logD in data set [1] was 2.1. For the same molecule, the fraction unbound at 0.5 mg/mL on human serum albumin was 0.11.
